# Experimental data from patent publication US12291522B2, “Galectin-3 inhibitors” (BRISTOL-MYERS SQUIBB COMPANY, priority 2020, dated 2025).
# Read-outs that look alike come from different tables or passages of the source.
# How the values were obtained:
# [1] = target: T1, Gal3 (Human Galectin-3) in THP-1 cells (Homo sapiens, UniProt P17931); experiment: ELISA Gal3 Degradation Assay in THP-1 Cells; assay type: cell-based; details: 48 hours, culture media Gal3 by ELISA
# T1 construct: host or cells: THP-1
# Method: [formula] ELISA Gal3 Degradation Assay in THP-1 Cells
# THP-1 cells (ATCC, Cat #TIB-202), a human monocyte cell line derived from leukemia were plated at 2E6 cells/mL in 200 uL/well of RPMI 1640 (ThermoFisher, Cat #11835) in 96-well plates. Cells were treated with DMSO as a control and various concentrations of compounds for 48 hours. After the treatment, the culture media were collected. The PBS washed cell pellets were lysed in Lysis Buffer (Cell Signaling, Cat #9803) supplemented with 1XProtease Inhibitor Cocktail (Cell Signaling, Cat #5872). Gal3 levels in culture media and cell lysates were quantified by ELISA assays (Human Galectin-3 DuoSet ELISA kit, R&D Systems, Cat #DY1154) according to manufacturer's instructions. The cell culture media were also used for the assessment of cellular toxicity (LDH Assay kit, R&D Systems, DY994). The IC50 (degradation concentration at 50%) values were calculated based on the cellular Gal3 protein levels using DMSO as the control.
# [2] = target: His-tagged recombinant human Gal-3 (hGal-3) (Homo sapiens, UniProt P17931); experiment: Gal-3 HTRF assay (His-tagged hGal-3 / B-ASF); assay type: binding; details: 15 nM hGal-3, 15 nM B-ASF
# Method: ASSAY BUFFER Composition: 25 mM HEPES, 100 mM NaCl, 0.005% Tween 20, 0.05% BSA prepared in sterile water (all reagents from Sigma).
# • Positive Control: 100% DMSO (1 μL)+His-tagged hGal-3 (20 μL)+B-ASF (20 μL)+Anti-His Terbium Antibody (5 μL)+Strep d2 Antibody (5 μL). • Negative Control: 100% DMSO (1 μL)+His-tagged hGal-3 (20 μL)+Anti His Terbium Antibody (5 μL)+Strep d2 Aantibody (5 μL). Stocks Preparation:
# PROTOCOL: The Gal-3 assays were performed in 384 white Opti plates in three replicates at room temperature with gentle shaking at 250-300 rpmFrom the original stocks, […] working stock concentrations of His-tagged recombinant human Gal-3 (hGal-3) and that of B-ASF were prepared. From the working stock, 20 μL of hGal-3 (15 nM) and 20 μL B-ASF (15 nM) were added to the plates. In Negative Control, only hGal-3 was added. A concentration range of 50× working stocks were prepared for the compounds in 100% DMSO. Aliquots of luL of the compounds were added to the wells and pre-incubated with 20 μL hGal-3 per well for 30 minutes Then 20 μL B-ASF wereadded and incubated for another 1 hour. To detect the signal, 5 μL (final conc. of 1.0 nM) terbium labelled Anti-His antibody was added and incubated for 30 min followed by adding 5 μL (final conc. of 20 nM) Streptavidin d2 and incubation for another 1 hour. The assay signal was detected using HTRF screen protocol (Excitation wavelength=340 nm, emission wavelength=615 nm/665 nm) on Envision 2104 Multilabel Reader. Data analysed using Toolset and Curve Master. Results are reported in the experimental section (IC50 in μM).
# [3] = target: T2, hCRBN (NanoLuc-CRBN fusion construct in HEK-293 cells) (Homo sapiens, UniProt Q96SW2); experiment: CRBN BRET Target Engagement; assay type: cell-based; details: NanoLuc-CRBN transfected HEK-293 cells, BRET with CRBN Probe
# T2 construct: expressed in transfected cells; host or cells: HEK-293
# Method: CRBN BRET Target Engagement (hCRBN IC50 (μM))
# NanoLuc-CRBN fusion construct was transfected in HEK-293 cells using FuGENE HD (Promega) according to the manufacturer's protocol. In brief, Nluc-CRBN was diluted into Transfection Carrier DNA (Promega) 1:10 (mass/mass), to which FuGENE HD was 1:3 (μg DNA:μL FuGENE HD). One part (vol) of DNA:FuGENE HD complexes were combined with 20 parts (vol) of HEK-293 cells suspended at a density of […]. Cells were incubated for ˜20 hr at 37° C./5% CO2. Following transfection, cells were washed and resuspended at 200,000 cells/mL in OptiMEM without phenol red (Gibco).
# For BRET measurements, cells were seeded in a 384-well nonbinding surface plate (Corning) plate for a final count of 10,000 cells/well. Compounds were dissolved at 10 mM in dimethylsulfoxide (DMSO) and evaluated at eleven concentrations using a high concentration of […]. CRBN Probe was used for equilibrium measurements, employing a final concentration of approximately EC50-80. For live-cell measurements, 20 nM of CRBN Probe was added. For the live-cell assay conditions, the plates were incubated for 2 hours at 37° C./5% CO2. NanoBRET NanoGlo Substrate and Extracellular Nanoluc Inhibitor (Promega) were added according to manufacturer's guidelines. For lytic cell measurements, digitonin was added to the cells to a final concentration of 50 μg/mL and 20 nM of CRBN Probe was added. To measure NanoBRET in permeabilized cells, extracellular Nluc inhibitor was omitted during the detection step. For all BRET experiments, the Envision 2015 (Perkin Elmer) equipped with a BRET2 Enh mirror, BRET 647 nM/75 nM Bandwidth and BC703 460 nM/80 nM Bandwidth filters was used for readouts. Each read was integrated for 0.5 s.
# To determine compound potency (IC50), BRET ratios for each dilution series was first normalized to a % Inhibition value via Equation 1, where “S” represents Sample BRET, “B” represents Background BRET, and “T” represents Total BRET. In this equation, the background control (B) consists of NanoLuc-CRBN expressing cells and no CRBN Probe. The total BRET Ratio (T) consists of NanoLuc-CRBN expressing cells, CRBN Probe, and an amount of DMSO at a concentration equivalent to that added when testing compounds.
# Following normalization, the percent inhibition values are plotted as a function of compound concentration and fit to Equation 2. […]
# [4] = test 1, read-out: Supernatant (IC50) test 1
# [5] = test 2, read-out: Supernatant (IC50) test 2
# T2 sequence (Q96SW2 whole entry, the tested form may be a part): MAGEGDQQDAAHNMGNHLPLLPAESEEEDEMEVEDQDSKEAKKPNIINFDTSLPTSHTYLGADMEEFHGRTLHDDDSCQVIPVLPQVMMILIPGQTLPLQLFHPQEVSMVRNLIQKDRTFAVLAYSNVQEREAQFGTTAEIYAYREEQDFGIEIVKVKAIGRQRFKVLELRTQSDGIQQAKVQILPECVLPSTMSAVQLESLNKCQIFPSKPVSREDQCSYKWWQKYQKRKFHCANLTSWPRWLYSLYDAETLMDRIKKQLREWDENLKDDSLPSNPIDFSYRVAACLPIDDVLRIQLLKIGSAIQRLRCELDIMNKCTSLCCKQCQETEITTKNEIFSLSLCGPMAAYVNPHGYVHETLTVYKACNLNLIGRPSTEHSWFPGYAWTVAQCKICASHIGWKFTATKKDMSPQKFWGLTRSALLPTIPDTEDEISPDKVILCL
# Chain of His-tagged recombinant human Gal-3 (hGal-3) (P17931 whole entry): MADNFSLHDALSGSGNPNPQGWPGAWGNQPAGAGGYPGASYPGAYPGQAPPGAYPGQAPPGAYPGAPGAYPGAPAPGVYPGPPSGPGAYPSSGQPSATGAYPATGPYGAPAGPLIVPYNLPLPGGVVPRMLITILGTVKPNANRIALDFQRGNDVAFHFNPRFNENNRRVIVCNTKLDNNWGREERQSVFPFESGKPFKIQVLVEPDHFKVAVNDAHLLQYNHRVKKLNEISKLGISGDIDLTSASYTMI
# T1 sequence (P17931 whole entry): as above
SMILES,"IC50 [1, 4]","IC50 [1, 5]",IC50 [2],IC50 [3]
"Cc1nc([C@@H]2O[C@H](CO)[C@H](O)[C@H](n3cc(-c4cc(F)c(Cl)c(F)c4)nn3)[C@H]2OCC(=O)N2CC(COc3ccc(C(=O)Nc4ccc5c(c4)C(=O)N(C4CCC(=O)NC4=O)C5)cc3)C2)n(-c2cc(Cl)ccc2C(F)(F)F)n1 (stereo partly drawn) [Example 11, 4-((1-(2-(((2S,3R,4S,5R,6R)-2-(1-(5-Chloro-2-(trifluoromethyl)phenyl)-3-methyl-1H-1,2,4-triazol-5-yl)-4-(4-(4-chloro-3,5-difluorophenyl)-1H-1,2,3-triazol-1-yl)-5-hydroxy-6-(hydroxymethyl)tetrahydro-2H-pyran-3-yl)oxy)acetyl)azetidin-3-yl)methoxy)-N-(2-(2,6-dioxopiperidin-3-yl)-3-oxoisoindolin-5-yl)benzamide]",35 nM,27 nM,40 nM,1270 nM
Cc1nc([C@@H]2O[C@H](CO)[C@H](O)[C@H](n3cc(-c4cc(F)c(Cl)c(F)c4)nn3)[C@H]2OCC(=O)N[C@H]2C[C@H](Oc3ccc(C(=O)Nc4ccc5c(c4)CN(C4CCC(=O)NC4=O)C5=O)nc3)C2)n(-c2cc(Cl)ccc2C(F)(F)F)n1 (some centres unmarked) [Example 18],13 nM,14 nM,220 nM,110 nM
Cc1nc([C@@H]2O[C@H](CO)[C@H](O)[C@H](n3cc(-c4cc(F)c(Cl)c(F)c4)nn3)[C@H]2OCC(=O)N[C@H]2C[C@@H](Oc3ccc(C(=O)Nc4cccc5c4CN(C4CCC(=O)NC4=O)C5=O)nc3)C2)n(-c2cc(Cl)ccc2C(F)(F)F)n1 (some centres unmarked) [Example 21],1040 nM,23 nM,70 nM,930 nM
Cc1nc([C@@H]2O[C@H](CO)[C@H](O)[C@H](n3cc(-c4cc(F)c(Cl)c(F)c4)nn3)[C@H]2OCC(=O)N[C@H]2C[C@@H](Oc3ccc(C(=O)Nc4ccc5c(c4)C(=O)N(C4CCC(=O)NC4=O)C5)nc3)C2)n(-c2cc(Cl)ccc2C(F)(F)F)n1 (some centres unmarked) [Example 23],19 nM,< 10 nM,42 nM,70 nM
Cc1nc([C@@H]2O[C@H](CO)[C@H](O)[C@H](n3cc(-c4cc(F)c(Cl)c(F)c4)nn3)[C@H]2OCCOc2ccc(C(=O)Nc3ccc4c(c3)CN(C3CCC(=O)NC3=O)C4=O)cc2)n(-c2cc(Cl)ccc2C(F)(F)F)n1 (some centres unmarked) [Example 25],1700 nM,522 nM,139 nM,2690 nM
Cc1nc([C@@H]2O[C@H](CO)[C@H](O)[C@H](n3cc(-c4cc(F)c(Cl)c(F)c4)nn3)[C@H]2OCC(=O)N2CC(COc3ccc(C(=O)Nc4ccc5c(c4)CN(C4CCC(=O)NC4=O)C5=O)nc3)C2)n(-c2cc(Cl)ccc2C(F)(F)F)n1 (some centres unmarked) [Example 26],9 nM,9 nM,85 nM,251 nM
Cc1nc([C@@H]2O[C@H](CO)[C@H](O)[C@H](n3cc(-c4cc(F)c(Cl)c(F)c4)nn3)[C@H]2OCC(=O)N2CCC(COc3ccc(C(=O)Nc4ccc5c(c4)CN(C4CCC(=O)NC4=O)C5=O)cc3)CC2)n(-c2cc(Cl)ccc2C(F)(F)F)n1 (some centres unmarked) [Example 27],–,40 nM,312 nM,374 nM
Cc1nc([C@@H]2O[C@H](CO)[C@H](O)[C@H](n3cc(-c4cc(F)c(Cl)c(F)c4)nn3)[C@H]2OCC(=O)N2CC(COc3ccc(C(=O)Nc4cccc5c4CN(C4CCC(=O)NC4=O)C5=O)cc3)C2)n(-c2cc(Cl)ccc2C(F)(F)F)n1 (some centres unmarked) [Example 30],854 nM,50 nM,86 nM,10600 nM
Cc1nc([C@@H]2O[C@H](CO)[C@H](O)[C@H](n3cc(-c4cc(F)c(Cl)c(F)c4)nn3)[C@H]2OCC(=O)N2CCC(Oc3ccc(C(=O)Nc4ccc5c(c4)CN(C4CCC(=O)NC4=O)C5=O)cc3)CC2)n(-c2cc(Cl)ccc2C(F)(F)F)n1 (some centres unmarked) [Example 31],50 nM,14 nM,139 nM,447 nM
Cc1nc([C@@H]2O[C@H](CO)[C@H](O)[C@H](n3cc(-c4cc(F)c(Cl)c(F)c4)nn3)[C@H]2OCC(=O)N2CC(COc3ccc(C(=O)Nc4cccc5c4CN(C4CCC(=O)NC4=O)C5=O)nc3)C2)n(-c2cc(Cl)ccc2C(F)(F)F)n1 (some centres unmarked) [Example 32],1250 nM,1580 nM,94 nM,13700 nM
Cc1nc([C@@H]2O[C@H](CO)[C@H](O)[C@H](n3cc(-c4cc(F)c(Cl)c(F)c4)nn3)[C@H]2OCC(=O)N2CC3(CC(Oc4ccc(C(=O)Nc5ccc6c(c5)CN(C5CCC(=O)NC5=O)C6=O)cc4)C3)C2)n(-c2cc(Cl)ccc2C(F)(F)F)n1 (some centres unmarked) [Example 34],4580 nM,210 nM,110 nM,1020 nM
Cc1nc([C@@H]2O[C@H](CO)[C@H](O)[C@H](n3cc(-c4cc(F)c(Cl)c(F)c4)nn3)[C@H]2OCC(=O)N2CC(Oc3ccc(C(=O)Nc4ccc5c(c4)CN(C4CCC(=O)NC4=O)C5=O)nc3)C2)n(-c2cc(Cl)ccc2C(F)(F)F)n1 (some centres unmarked) [Example 35],314 nM,338 nM,77 nM,498 nM
